Reference: patent publication US6534520B2, “Antiviral compounds” (priority 1997, dated 2003)
Converted amounts (≈) assume the structure as drawn. Like-named read-outs stand apart in the source and are kept apart here.

Legend:
HSV-1 = test: Antiviral activity against HSV-1 (CPE inhibition / neutral red); type: cell-based, herpes simplex virus type 1
[1] = tested on: Respiratory Syncitial Virus (RSV); test: Antiviral activity against RSV (CPE inhibition / neutral red); type: cell-based
Influenza A = test: microbe, parasite or virus in culture; type: cell-based; details: for IC50: Influenza A virus, read-out: INFLUENZA A IC50
uninfected cells [2] = test: Cytotoxicity run with the Influenza A test; type: cell-based
Description: (§1) Methods For Assay Of Cytotoxicity
(§2) In the CPE inhibition test, two wells of uninfected cells treated with each concentration of test Compound are run in parallel with the infected, treated wells. At the time CPE is determined microscopically, the toxicity control cells are also examined microscopically for any changes in cell appearance compared to normal control cells run in the same plate. These changes may be enlargement, granularity, cells with ragged edges, a filmy appearance, rounding, detachment from the surface of the well, or other changes. These changes are given a designation of T (100% toxic), PVH (partially toxic-very heavy-80%), PH (partially toxic-heavy-60%), P (partially toxic-40%), PS (partially toxic-slight-20%), or 0 (no toxicity-0%), conforming to the degree of cytotoxicity seen.
(§3) In the neutral red dye uptake phase of the antiviral test described above, the two toxicity control wells also receive neutral red and the degree of color intensity is determined spectrophotometrically. A neutral red CC50 (NRCC50) is subsequently determined.
(§4) C. ^3H Thymidine Uptake Assay
(§5) Flat bottom 96 well plates are plated with 5X10E3 Vero-34 cells/well and 1X10E4 Hs68 or Wi-38 cells/well respectively and incubated overnight at 37° C. and 5% CO2/air. After incubation, the supernatant medium is removed and replaced with test Compound dilutions in 2% DMEM (150 ul). The cells are then incubated 48 hours in a 5% CO2 incubator at 37° C.
(§6) 50 μl/well of 10 uCi/ml solution of [3H]-methyl thymidine (specific activity of approx. 2Ci/mmol) is added to the culture medium and incubated overnight (18 hours) in a 5% CO2 incubator at 37° C.
(§7) Cells are then collected onto a fiberglass filter (Printed Filtermat A 1450-421 Wallac) with a Tomtec cell harvester. Suspended cells are collected directly onto filter while for adherent cells, the medium is first removed, then the cells washed with PBS and trypsinized for 2-3 minutes (50 μl trypsin/well) before collecting.
(§8) Filters are dried for 1 hour at 37-40° C. and then placed into bags (1450-microbeta #1450-432 Wallac) with 4.5 ml of Betascint and counts obtained with Microbeta 1450 Wallac (protocol 1).
(§9) The percent of cell proliferation is determined by comparison to the control (no test Compound) and thereby establishing 50% inhibitory concentration is established.

Influenza B = test: microbe, parasite or virus in culture; type: cell-based; details: for IC50: Influenza B virus
uninfected cells [3] = test: Cytotoxicity run with the Influenza B test; type: cell-based
Description: as §1, §2, §3, §4, §5, §6, §7, §8, §9

Rhinovirus (RV) = test: Antiviral activity against Rhinovirus (CPE inhibition / neutral red); type: cell-based; details: for IC50: Enterovirus, read-out: RV IC50
Parainfluenza = test: Antiviral activity against Parainfluenza (CPE inhibition / neutral red); type: cell-based
Adenovirus = test: Antiviral activity against Adenovirus (CPE inhibition / neutral red); type: cell-based
HIVROJO = test: Anti-HIV activity against HIVROJO in PBMCs; type: cell-based; details: for IC50: Human immunodeficiency virus 1, PBMC, read-out: HIVROJO (PBMCs) IC50
PBMCs = test: Cytotoxicity in PBMCs (anti-HIV tests); type: cell-based; details: for HIVTEKI (PBMCs) CC50: HIVTEKI columns
uninfected cells [4] = tested on: uninfected cells
uninfected cells [5] = tested on: uninfected cells; remark: listed apart in the source
uninfected cells [6] = tested on: uninfected cells; remark: listed apart in the source
uninfected cells [7] = tested on: uninfected cells; remark: listed apart in the source
uninfected cells [8] = test: Cytotoxicity run with the Adenovirus test; details: cytotoxicity, Adenovirus test
HIVTEKI = test: Anti-HIV activity against HIVTEKI in PBMCs; details: for IC50: Human immunodeficiency virus 1, PBMC, read-out: HIVTEKI (PBMCs) IC50
[9] = Cytotoxicity run with the Influenza A test; type: cell-based
Description: as §1, §2, §3, §4, §5, §6, §7, §8, §9

[10] = Cytotoxicity run with the Influenza B test; type: cell-based
Description: as §1, §2, §3, §4, §5, §6, §7, §8, §9

[11] = Cytotoxicity in PBMCs (anti-HIV tests); type: cell-based; details: human; PBMCs, HIVROJO
[12] = Cytotoxicity run with the RSV test
[13] = Cytotoxicity run with the HSV-1 test
[14] = Cytotoxicity run with the Rhinovirus test
[15] = Cytotoxicity run with the Adenovirus test
[16] = Cytotoxicity run with the Parainfluenza test
HSV-2 = test: Antiviral activity against HSV-2 (CPE inhibition / neutral red); type: cell-based, herpes simplex virus type 2; details: HSV-2
uninfected cells [17] = tested on: uninfected cells; remark: listed apart in the source
[18] = human respiratory syncytial virus; read-out: RSV IC50
[19] = unidentified adenovirus; read-out: ADENOVIRUS IC50

Row | Compound | HSV-1 IC50 (HSV-1; HSV-1) [µg/mL] | RSV IC50 ([1]; RSV) [µg/mL] | INFLUENZA A IC50 (Influenza A) [µg/mL] | INFLUENZA A CC50 (uninfected cells [2]) [µg/mL] | INFLUENZA B IC50 (Influenza B) [µg/mL] | RV IC50 (Rhinovirus (RV); Rhinovirus) [µg/mL] | ADENOVIRUS IC50 (Adenovirus; Adenovirus) [µg/mL] | HIVROJO (PBMCs) IC50 (HIVROJO; HIVROJO, PBMCs) [µg/mL] | HIVROJO (PBMCs) CC50 (PBMCs) [µg/mL] | HSV-1 CC50 (uninfected cells [4]) [µg/mL] | RSV CC50 (uninfected cells [5]) [µg/mL] | RV CC50 (uninfected cells [6]) [µg/mL] | PARAINFLUENZA CC50 (uninfected cells [7]) [µg/mL] | IC50 (Influenza A) [µg/mL] | CC50 [9] [µg/mL] | IC50 (Influenza B) [µg/mL] | CC50 [10] [µg/mL] | IC50 (Parainfluenza) [µg/mL] | CC50 [11] [µg/mL] | CC50 [12] [µg/mL] | further results
1 | C[C@H](NC(=O)c1nc2ccncc2s1)c1ccccc1 [#62, Thiazolo[5,4-c]pyridine-2-carboxylic acid(1(S)-phenyl-ethyl)amide] |  |  |  |  |  |  |  |  |  |  |  |  |  |  |  |  |  |  |  |  | HCMV IC50 (HCMV): ˜1 μg/ml
2 | CC(C)Oc1ccccc1NC(=O)Nc1ccc2cnccc2n1 [#46, 1-(2-iso-propoxy-phenyl)-3-[1,6]naphthyridin-2-yl-urea;] | >100 | >30 | >32 | 19 | > 32 | 1 | > 30 | 3.2 | >100 | >100 | 30 | > 30 | 30 |  |  |  |  |  |  |  | INFLUENZA B CC50 (uninfected cells [3]): > 22 µg/mL; PARAINFLUENZA IC50 (Parainfluenza): > 30 µg/mL; HIVTEKI (PBMCs) CC50 (PBMCs): >100 µg/mL; ADENOVIRUS CC50 (uninfected cells [8]): > 30 µg/mL; HIVTEKI (PBMCs) IC50 (HIVTEKI): 4.3 µg/mL
3 | COc1ccccc1CNC(=O)c1nc2ccncc2s1 [#59, Thiazolo[5,4-c]pyridine-2-carboxylic acid-2-methoxybenzylamide] |  |  |  |  |  |  |  |  |  |  |  |  |  |  |  |  |  |  |  |  | HCMV IC50 (HCMV): ˜10 μg/ml
4 | Cc1cncc2ccc(C(=O)NCc3ccccc3OC(C)C)nc12 [#64, 8-(methyl)-[1,6]Naphthyridine-2-carboxylic acid 2-isopropoxybenzylamine] |  |  |  |  |  |  |  |  |  |  |  |  |  | 2.4 (≈ 7.16 µM) | 2.4 (≈ 7.16 µM) | 1.8 (≈ 5.37 µM) | 1.8 (≈ 5.37 µM) | 1 (≈ 2.98 µM) | 4.3 (≈ 12.8 µM) | 0.6 (≈ 1.79 µM) | IC50 (HSV-1; Human alphaherpesvirus 1; read-out: HSV-1 IC50): 2 µg/mL (≈ 5.96 µM); IC50 [1, 18]: 0.6 µg/mL (≈ 1.79 µM); IC50 (Rhinovirus (RV); Rhinovirus): > 0.08 µg/mL; IC50 (Adenovirus; [19]): 3 µg/mL (≈ 8.94 µM); IC50 (HIVROJO; HIVROJO, PBMCs): 0.28 µg/mL (≈ 0.835 µM); CC50 [13]: 3.5 µg/mL (≈ 10.4 µM); CC50 [14]: 16 µg/mL (≈ 47.7 µM); CC50 [15]: 1 µg/mL (≈ 2.98 µM); IC50 (HIVTEKI): 0.8 µg/mL (≈ 2.39 µM); CC50 [16]: 1 µg/mL (≈ 2.98 µM)
5 | C[C@@H](NC(=O)c1ccc2cncc(Br)c2n1)c1ccccc1 [#66, 8-Bromo-[1,6]naphthyridine-2-carboxylic acid (1-phenyl-ethyl)-amide] |  |  |  |  |  |  |  |  |  |  |  |  |  | 56 (≈ 157 µM) | 24 (≈ 67.4 µM) | 18 (≈ 50.5 µM) | 18 (≈ 50.5 µM) | 83 (≈ 233 µM) | 27.3 (≈ 76.6 µM) | 5 (≈ 14 µM) | IC50 (HSV-1; Human alphaherpesvirus 1, read-out: HSV-1 IC50): 1 µg/mL (≈ 2.81 µM); IC50 ([1]; human respiratory syncytial virus, read-out: RSV IC50): 4 µg/mL (≈ 11.2 µM); IC50 (Rhinovirus (RV)): 0.3 µg/mL (≈ 0.842 µM); IC50 (Adenovirus; unidentified adenovirus, read-out: ADENOVIRUS IC50): 9 µg/mL (≈ 25.3 µM); IC50 (HIVROJO): 1.4 µg/mL (≈ 3.93 µM); CC50 [13]: 20 µg/mL (≈ 56.1 µM); CC50 [14]: 3 µg/mL (≈ 8.42 µM); CC50 [15]: 8 µg/mL (≈ 22.5 µM); IC50 (HIVTEKI): 2.2 µg/mL (≈ 6.18 µM); CC50 [16]: 10 µg/mL (≈ 28.1 µM)
6 | CCCOc1ccccc1CNC(=O)c1ccc2cnccc2n1 [#26, N-(2-propoxybenzyl)-2-[1,6]naphthyridine-2-carboxamide] | 0.36 | 4 | 5.6 | 5.6 | 3.2 | < 0.01 | 4 | 4.1 | 6.0 | 3.2 | 3 | 4 | 2 |  |  |  |  |  |  |  | HSV-2 IC50 (HSV-2): 0.19 µg/mL; INFLUENZA B CC50 (uninfected cells [3]): 5.6 µg/mL; PARAINFLUENZA IC50 (Parainfluenza): 4 µg/mL; HSV-2 CC50 (uninfected cells [17]): 1.9 µg/mL; HIVTEKI (PBMCs) IC50 (HIVTEKI): 0.3 µg/mL
7 | C=Cc1cncc2ccc(C(=O)NCc3ccccc3OC(C)C)nc12 [#63, 8-(vinyl)-[1,6]Naphthyridine-2-carboxylic acid 2-isopropoxybenzylamine] |  |  |  |  |  |  |  |  |  |  |  |  |  | 5.6 (≈ 16.1 µM) | 5.6 (≈ 16.1 µM) | 5.2 (≈ 15 µM) | 2.4 (≈ 6.91 µM) | 10 (≈ 28.8 µM) | 7 (≈ 20.1 µM) | 5 (≈ 14.4 µM) | IC50 [1, 18]: 12 µg/mL (≈ 34.5 µM); IC50 (Rhinovirus (RV); Rhinovirus): 2 µg/mL (≈ 5.76 µM); IC50 (Adenovirus; [19]): 9 µg/mL (≈ 25.9 µM); IC50 (HIVROJO; HIVROJO, PBMCs): 0.7 µg/mL (≈ 2.01 µM); CC50 [14]: 9 µg/mL (≈ 25.9 µM); CC50 [15]: 7 µg/mL (≈ 20.1 µM); IC50 (HIVTEKI): 4.9 µg/mL (≈ 14.1 µM); CC50 [16]: 8 µg/mL (≈ 23 µM)
8 | COc1ccccc1CNC(=O)C1=Cc2ccncc2CC1 [#32, 7,8-dihydroisoquinolin-6-carboxylic acid 2′-methoxybenzylamide] | 5.5 | 50 | 60 | 67 | 56 | 10 | > 100 | 45 | >64 | 14 | 30 | 25 | 20 |  |  |  |  |  |  |  | HSV-2 IC50 (HSV-2): 15 µg/mL; HIVTEKI (PBMCs) CC50 (PBMCs): >64 µg/mL; HSV-2 CC50 (uninfected cells [17]): 29.0 µg/mL; ADENOVIRUS CC50 (uninfected cells [8]): 80 µg/mL
